The molecules below were run against NAMPT enzyme (Homo sapiens (Human), UniProt P43490) (assay: Enzyme Assay and NMN Detection (NAMPT reaction, fluorescence detection of NMN)). Conditions: Table B-1; NAMPT activation, NMN formation.
Type: biochemical
Protocol: NAMPT reaction was performed in 50 mM HEPES, pH 7.5, containing 5 mM MgCl2, 0.1% Prionex, 0.005% Tween 20, and 1 mM TCEP at room temperature in Greiner 384-well black polypropylene plates. The concentration of substrates and enzymes in the final assay were as follows: ATP (120 uM), nicotinamide (5 uM), phosphoribosylpyrophosphate (6.25 uM), NAMPT enzyme (16 nM), pyrophosphatase (0.04 U/ml) in the final reaction volume 6 uL. Following 2 h incubation the reaction was stopped by addition 2.5 ul 20% acetophenone in dimethyl sulfoxide (DMSO) and 2.5 ul 2 MKOH. Plates were centrifuges and added with 10.5 ul 88% formic acid. The fluorescence (ex380/em460) was measured following another short incubation and 30 min incubation. The increased concentration of NMN was determined from a calibration curve obtained at the time of experiment.

Sequence of NAMPT enzyme (P43490 whole entry, species assumed): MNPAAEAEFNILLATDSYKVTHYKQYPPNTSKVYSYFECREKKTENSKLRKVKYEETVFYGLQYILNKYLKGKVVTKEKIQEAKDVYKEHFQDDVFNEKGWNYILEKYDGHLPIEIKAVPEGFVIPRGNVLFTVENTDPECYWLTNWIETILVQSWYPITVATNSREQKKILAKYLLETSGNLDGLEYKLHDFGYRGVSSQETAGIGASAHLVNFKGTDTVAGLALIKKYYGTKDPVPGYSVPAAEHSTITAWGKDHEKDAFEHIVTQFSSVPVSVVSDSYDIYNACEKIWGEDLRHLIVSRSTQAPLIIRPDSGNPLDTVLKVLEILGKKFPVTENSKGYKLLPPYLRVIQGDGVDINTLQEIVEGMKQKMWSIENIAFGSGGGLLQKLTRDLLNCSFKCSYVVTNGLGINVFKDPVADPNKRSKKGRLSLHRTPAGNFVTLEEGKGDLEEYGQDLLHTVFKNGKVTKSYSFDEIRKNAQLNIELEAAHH

EC50 | Structure (SMILES)
100 to 2000 nM | O=C(NCc1cn[nH]c1)Nc1ccc(S(=O)(=O)NCc2ccccc2)cc1 [N-Benzyl-4-[3-(1H-pyrazol-4-ylmethyl)-ureido]-benzenesulfonamide]
> 20000 nM | CCOC(=O)c1ccc(NC(=O)NCc2c[nH]nn2)cc1 [Ethyl 4-(3-((1H-1,2,3-triazol-4-yl)methyl)ureido)benzoate]
> 20000 nM | CCOC(=O)c1ccc(NC(=O)NCc2c[nH]nc2C)cc1 [Ethyl 4-(3-((3-methyl-1H-pyrazol-4-yl)methyl)ureido)benzoate]

Same assay, conditions: Table B-2; NAMPT activation, NMN formation

EC50 | Structure (SMILES)
2000 to 5000 nM | O=C(NCc1ccncc1)Nc1ccc(C(=O)NCC2CC2)cc1 [N-(cyclopropylmethyl)-4-(3-(pyridin-4-ylmethyl)ureido)benzamide]
100 to 2000 nM | O=C(NCc1ccncc1)Nc1ccc(C(=O)Nc2cncnc2)cc1 [4-(3-(pyridin-4-ylmethyl)ureido)-N-(pyrimidin-5-yl)benzamide]
> 20000 nM | O=C(NCc1ccncc1)Nc1cccc(S(=O)(=O)NCCc2ccccc2)c1 [N-phenethyl-3-(3-(pyridin-4-ylmethyl)ureido)benzenesulfonamide]
> 20000 nM | O=C(NCc1ccncc1)Nc1ccc(S(=O)(=O)N(Cc2ccccc2)Cc2ccccc2)cc1 [N,N-Dibenzyl-4-(3-pyridin-4-ylmethyl-ureido)-benzenesulfonamide]
< 100 nM | O=C(NCc1ccncc1)Nc1ccc(NS(=O)(=O)c2ccccc2Cl)cc1 [2-Chloro-N-[4-(3-pyridin-4-ylmethyl-ureido)-phenyl]-benzenesulfonamide]
100 to 2000 nM | O=C(NCc1ccncc1)Nc1ccc(C(=O)Nc2ccc(OC(F)(F)F)cc2)cc1 [4-(3-(pyridin-4-ylmethyl)ureido)-N-(4-(trifluoromethoxy)phenyl)benzamide]
< 100 nM | COc1ccccc1CN(C)S(=O)(=O)c1ccc(NC(=O)NCc2ccncc2)cc1 [N-(2-Methoxy-benzyl)-N-methyl-4-(3-pyridin-4-ylmethyl-ureido)-benzenesulfonamide]
100 to 2000 nM | O=C(NCc1ccncc1)Nc1ccc(S(=O)(=O)NC2CCCC2)cc1 [N-cyclopentyl-4-(3-pyridin-4-ylmethyl-ureido)-benzenesulfonamide]
< 100 nM | Cc1cccc2c1CN(S(=O)(=O)c1ccc(NC(=O)NCc3ccncc3)cc1)CC2 [1-[4-(8-Methyl-3,4-dihydro-1H-isoquinoline-2-sulfonyl)-phenyl]-3-pyridin-4-ylmethyl-urea]
100 to 2000 nM | CN(C1CCCC1)S(=O)(=O)c1ccc(NC(=O)NCc2ccncc2)cc1 [N-Cyclopentyl-N-methyl-4-(3-pyridin-4-ylmethyl-ureido)-benzenesulfonamide]
100 to 2000 nM | Cc1cccc(CNS(=O)(=O)c2ccc(NC(=O)NCc3ccncc3)cc2)c1 [N-(3-Methyl-benzyl)-4-(3-pyridin-4-ylmethyl-ureido)-benzenesulfonamide]

The remaining lines, values behind:

Structure (SMILES) | EC50
O=C(NCc1ccncc1)Nc1ccc(OC(F)(F)F)cc1 [1-(Pyridin-4-ylmethyl)-3-(4-(trifluoromethoxy)phenyl)urea] | > 20000 nM
CN1CCN(C(=O)c2ccc(NC(=O)NCc3ccncc3)cc2)CC1 [1-(4-(4-Methylpiperazine-1-carbonyl)phenyl)-3-(pyridin-4-ylmethyl)urea] | 5000 to 20000 nM

Same assay, conditions: Table B-3; NAMPT activation, NMN formation

EC50 | Structure (SMILES)
> 20000 nM | CCOC(=O)c1ccc(NC(=O)N(C)Cc2ccccc2)cc1 [4-(3-Benzyl-3-methyl-ureido)-benzoic acid ethyl ester]
> 20000 nM | O=C(NCc1ccccn1)Nc1ccc(F)cc1 [1-(4-Fluorophenyl)-3-(pyridin-2-ylmethyl)urea]
> 20000 nM | O=C(NCc1ccccc1)Nc1ccc(S(=O)(=O)NCc2ccccc2)cc1 [N-Benzyl-4-(3-benzyl-ureido)-benzenesulfonamide]

Same assay, conditions: Table B-4; NAMPT activation, NMN formation

EC50 | Structure (SMILES)
< 100 nM | O=C(NCc1cn[nH]c1)Nc1ccc(NS(=O)(=O)Cc2ccc(Cl)c(Cl)c2)cc1 [C-(3,4-Dichloro-phenyl)-N-{4-[3-(1H-pyrazol-4-ylmethyl)-ureido]-phenyl}-methanesulfonamide]
2000 to 5000 nM | CN1CCC(S(=O)(=O)c2ccc(NC(=O)NCc3cn[nH]c3)cc2)CC1 [1-[4-(1-Methyl-piperidine-4-sulfonyl)-phenyl]-3-(1H-pyrazol-4-ylmethyl)-urea]

Further lines, the molecule ahead of its results:

Structure (SMILES) | EC50
O=C(NCc1cn[nH]c1)Nc1ccc(S(=O)(=O)c2ccc(F)cc2)cc1 [1-((1H-Pyrazol-4-yl)methyl)-3-(4-((4-fluorophenyl)sulfonyl)phenyl)urea] | < 100 nM
COc1ccc(-c2csc(Nc3ccc(NC(=O)NCc4cn[nH]c4)cc3)n2)cc1 [1-((1H-Pyrazol-4-yl)methyl)-3-(4-((4-(4-methoxyphenyl)thiazol-2-yl)amino)phenyl)urea] | 100 to 2000 nM
Cn1nc(-c2ccc(NC(=O)NCc3cn[nH]c3)cc2)c2cccnc21 [1-[4-(1-Methyl-1H-pyrazolo[3,4-b]pyridin-3-yl)-phenyl]-3-(1H-pyrazol-4-ylmethyl)-urea] | 100 to 2000 nM

Same assay, conditions: Table B-5; NAMPT activation, NMN formation

EC50 | Structure (SMILES)
100 to 2000 nM | O=C(NCc1cnco1)Nc1ccc(-c2n[nH]c3ccccc23)cc1 [1-[4-(1H-Indazol-3-yl)-phenyl]-3-oxazol-5-ylmethyl-urea]
100 to 2000 nM | O=C(NCc1cnco1)Nc1ccc(S(=O)(=O)c2ccc(F)c(F)c2)cc1 [1-[4-(3,4-Difluoro-benzenesulfonyl)-phenyl]-3-oxazol-5-ylmethyl-urea]

Second part, the molecule before the results:

Structure (SMILES) | EC50
O=C(NCc1cnco1)Nc1ccc(S(=O)(=O)c2ccncc2)cc1 [1-(Oxazol-5-ylmethyl)-3-(4-(pyridin-4-ylsulfonyl)phenyl)urea] | 100 to 2000 nM
O=C(NCc1cnco1)Nc1ccc(S(=O)(=O)c2cnccn2)cc1 [1-Oxazol-5-ylmethyl-3-[4-(pyrazine-2-sulfonyl)-phenyl]-urea] | 100 to 2000 nM
O=C(NCc1cnco1)Nc1ccc(NS(=O)(=O)Cc2cccc(Cl)c2)cc1 [1-(3-Chlorophenyl)-N-(4-(3-(oxazol-5-ylmethyl)ureido)phenyl)methanesulfonamide] | < 100 nM
O=C(NCc1cnco1)Nc1ccc(S(=O)(=O)c2ccccc2C(F)(F)F)cc1 [1-Oxazol-5-ylmethyl-3-[4-(2-trifluoromethyl-benzenesulfonyl)-phenyl]-urea] | 100 to 2000 nM

Same assay, conditions: Table B-6; NAMPT activation, NMN formation

EC50 | Structure (SMILES)
100 to 2000 nM | O=C(NCc1ccncc1)Nc1ccc(S(=O)(=O)c2ccccc2-c2ccncc2)cc1 [1-[4-(2-Pyridin-4-yl-benzenesulfonyl)-phenyl]-3-pyridin-4-ylmethyl-urea]
100 to 2000 nM | N#Cc1ccc(S(=O)(=O)c2ccc(NC(=O)NCc3ccncc3)cc2)cc1 [1-[4-(4-Cyano-benzenesulfonyl)-phenyl]-3-pyridin-4-ylmethyl-urea]

Continued, molecule first:

Structure (SMILES) | EC50
O=C(NCc1ccncc1)Nc1ccc(S(=O)(=O)c2cccc(C(F)(F)F)c2)cc1 [1-(Pyridin-4-ylmethyl)-3-(4-((3-(trifluoromethyl)phenyl)sulfonyl)phenyl)urea] | < 100 nM
Cc1ccc2c(c1)c(-c1ccc(NC(=O)NCc3ccncc3)cc1)nn2C [1-(4-(1,5-Dimethyl-1H-indazol-3-yl)phenyl)-3-(pyridin-4-ylmethyl)urea] | 100 to 2000 nM
O=C(NCc1ccncc1)Nc1ccc(S(=O)(=O)c2cn[nH]c2)cc1 [1-(4-((1H-pyrazol-4-yl)sulfonyl)phenyl)-3-(pyridin-4-ylmethyl)urea] | 100 to 2000 nM
O=C(NCc1ccncc1)Nc1ccc(S(=O)(=O)c2cccc(F)c2)cc1 [1-(4-((3-Fluorophenyl)sulfonyl)phenyl)-3-(pyridin-4-ylmethyl)urea] | < 100 nM
O=C(NCc1ccncc1)Nc1ccc(S(=O)(=O)c2ccccc2OC(F)(F)F)cc1 [1-Pyridin-4-ylmethyl-3-[4-(2-trifluoromethoxy-benzenesulfonyl)-phenyl]-urea] | < 100 nM
